From paper PMC9223658, “New Borane-Protected Derivatives of α-Aminophosphonous Acid as Anti-Osteosarcoma Agents: ADME Analysis and Molecular Modeling, In Vitro Studies on Anti-Cancer Activities, and NEP Inhibition as a Possible Mechanism of Anti-Proliferative Activity” (International Journal of Molecular Sciences, 2022)
Read-outs that look alike come from different tables or passages of the source.

Experiments:
[1] = test system: osteosarcoma Saos-2 cells; test: MTT proliferation assay, 96 h; format: cell-based, human; details: MTT, 10% FBS, read-out: IC50 (µM ± SD) Saos-2
Description: (§1) One of the features specific totumor cells is the unlimited potential for proliferation. […] To this end, the assay conditions were established suchthat they encourage the proliferation of OS cells, i.e., the cell cultures at low density were incubated with compounds diluted in the growth medium (10% FBS) for an extended time of 96 h. Additionally, cisplatin, i.e., a common cytostatic used in osteosarcoma treatment, was included as a positive control in this study. Moreover, since the new generation of anti-cancer compounds is highly desired to be inert (non-cytotoxic) towards normal cells, the influence of compounds 1–7 on the viability of human normal cells (osteoblasts hFOB 1.19 and colon fibroblasts CCD-18Co) was also determined.To this end, the assay conditions were established such that they restrict the proliferation of OS cells and to establish whether the compounds have cytotoxic potential, i.e., the cell cultures were incubated with compounds diluted in the medium with a reduced concentration of FBS (2%) for a shortened time of 24 h. […] However, this activity varied depending on both the types of the compounds and the osteosarcoma cell lines (Table 4).
(§2) The anti-proliferative activity of compounds 1–7 against the HOS and Saos-2 osteosarcoma cells and the viability of the human normal hFOB 1.19 and CCD-18Co cells were screened by means of the MTT method. This method is commonly used to assess cell viability and proliferation or to determine the cytotoxicity of any compounds. It is a reliable method for this purpose because it is based on measurement of the level reduction in MTT dye to formazan byNAD(P)H-dependent oxidoreductase enzymes of metabolically active cells.
(§3) To assess the anti-proliferative activity of compounds 1–7 against the HOS and Saos-2 osteosarcoma cells, 3.0 × 10^4 cells/mLseeded (low density culture) into 96-well plates (Nunc, Roskilde, Denmark) were incubated with each compound at concentrations of 3.125, 6.25, 12.5, 25, 50, 100 and 200 µM prepared in medium with 10% FBS (growth medium) for 96 h. Additionally, cisplatin (Sigma Aldrich), i.e., a common cytostatic used in osteosarcoma treatment, was included as a positive control in this study. It was tested in the same conditions as compounds 1–7. The negative control was constituted by the untreated cells (0 µM). Next, the MTT assay was carried out as described previously.
(§4) The results of these assays were calculated as a percent of the untreated cells (100%; control). Then, the IC50 (concentration resulting in 50% inhibition of proliferation) and CC50 (concentration resulting in a 50% decrease in viability) values were calculated from a non-linear regression (log(inhibitor) vs. normalized response-variable slope) using GraphPad Prism 5.0 (GraphPAD Software Inc., San Diego, CA, USA). The IC50 and CC50 results were presented as themean ± SD of at least three experiments. In the case of the BrdU assay, the results were presented as a percent of untreated cells (100%; control).

osteosarcoma HOS cells = test: MTT proliferation assay, 96 h; format: cell-based, human; details: proliferation, 10% FBS, read-out: IC50 (µM ± SD) HOS
Description: as §1, §2, §3, §4

[2] = test system: active caspase 9 in HOS cells; test: Active caspase 9 assay (flow cytometry); format: cell-based, human; details: 3.5 µM (IC50 concentration), 72 h
Description: (§5) The level of active executor caspase 3 and initiator caspase 9 was determined to examine whether compounds 4 and 6 induced apoptosis in the HOS and Saos-2 cells. The influence of compounds 4 and 6 on HOS and Saos-2 were determined with the caspase 3 assay, whereas the influence of compound 6 on the HOS cells was investigated with the caspase 9 assay. In both assays, the osteosarcoma cells (3.0 × 10^5 cells/mL) were seeded in 6-well plates. The cells were treated with compounds 4 and 6 at concentrations of 12.5, 25, 50 µM and 20, 40, 80 µM as well as 15, 30, 60 µM and 21.25, 42.5, 85 µM for 72 h, respectively. The solutions of the compounds were prepared in a medium with 2% FBS. […] Next, floating and adherent cells were harvested and subjected to further steps of the staining procedures according to the manufacturer’s instruction. The level of active caspase 3 and caspase 9 was determined using the PE Active Caspase-3 Apoptosis Kit (BD Pharmingen^TM) and the CaspaTag^TM Caspase-9 in Situ Assay Kit (Millipore, Darmstadt, Germany), respectively. The number of stained cells (active caspase 3- or 9-positive cells) was measured using FACS Calibur, and the obtained data were analyzed using Cell Quest Pro Version 6.0. for the Macintosh operating system (BD Pharmingen™). The presented results were calculated as a percent of cells with either active caspase 3 or 9 among all the analyzed cells.

[3] = test system: active caspase 3 in Saos-2 cells; test: Active caspase 3 assay (flow cytometry); format: cell-based, human; details: Saos-2, 12.5 µM (IC50 concentration), 72 h
Description: as §5

[4] = test system: active caspase 3 in HOS cells; test: Active caspase 3 assay (flow cytometry); format: cell-based, human; details: 3.5 µM (IC50 concentration), 72 h
Description: as §5

[5] = MTT viability assay, 24 h; format: cell-based; details: human, 2% FBS
Description: as §1, §2
To assess the viability of human normal cells, confluent hFOB 1.19 (3 × 10^5 cells/mL) and CCD-18Co (1 × 10^5 cells/mL) cells seeded in 96-well plates (Nunc) were incubated with compounds 1–7 at concentrations of 3.125, 6.25, 12.5, 25, 50, 100 and 200 µM prepared in medium with 2% FBS (maintaining medium) for 24 h. The control was constituted by the untreated cells (0 µM). Next, the MTT assay was carried out as described previously.
as §4

NEP (neprilysin) = molecular target: T1, NEP (neprilysin) (Homo sapiens, UniProt P08473); test: Neutral endopeptidase activity assay (fluorometric); format: biochemical
T1 construct: purchased BioVision, Waltham, MA, USA
T1 sequence (P08473 whole entry): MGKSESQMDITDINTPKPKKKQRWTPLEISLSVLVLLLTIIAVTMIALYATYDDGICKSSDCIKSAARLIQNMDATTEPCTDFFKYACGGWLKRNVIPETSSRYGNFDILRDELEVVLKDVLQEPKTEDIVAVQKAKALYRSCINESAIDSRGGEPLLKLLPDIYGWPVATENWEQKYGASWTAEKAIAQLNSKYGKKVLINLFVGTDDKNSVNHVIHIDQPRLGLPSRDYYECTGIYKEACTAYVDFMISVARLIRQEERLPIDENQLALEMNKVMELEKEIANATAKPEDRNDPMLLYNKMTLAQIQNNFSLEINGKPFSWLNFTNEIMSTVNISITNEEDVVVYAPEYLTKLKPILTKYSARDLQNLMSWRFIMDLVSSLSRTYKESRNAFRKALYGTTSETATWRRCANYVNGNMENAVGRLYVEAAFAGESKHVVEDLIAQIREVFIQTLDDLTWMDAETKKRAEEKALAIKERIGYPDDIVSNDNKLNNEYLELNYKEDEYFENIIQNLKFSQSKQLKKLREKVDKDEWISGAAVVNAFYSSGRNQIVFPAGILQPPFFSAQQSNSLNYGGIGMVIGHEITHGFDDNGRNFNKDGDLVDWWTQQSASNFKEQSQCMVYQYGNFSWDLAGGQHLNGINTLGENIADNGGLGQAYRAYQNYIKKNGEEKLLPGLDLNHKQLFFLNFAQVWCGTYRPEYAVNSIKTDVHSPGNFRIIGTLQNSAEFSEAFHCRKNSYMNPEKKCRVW
Description: The NEP activity in the presence of compounds 4 and 6 was determined using the Neprilysin Activity Assay Kit (BioVision, Waltham, MA, USA) according to the manufacturer’s instructions. The measurement is based on the ability of active neprilysin to cleave a synthetic substrate (Abz-based peptide) to release a fluorophore, which can be easily quantified using a fluorescence microplate reader. Briefly, pure neprilysin (5µLof stock solution) was incubated with solutions of the tested compounds (at least 4 concentrations in the range of 0.01–50 µM) for 10 min at 37 °C. The reaction was started by adding the substrate solution, and the final sample volume was 100µL. Fluorescence was measured (Ex/Em = 330/430nm) in the kinetic mode at 37 °C for 1–2 h. The same procedure was used to measure the control and background sample. Thiorphan was used as a reference NEP inhibitor. NEP activity was determined with the prepared Abz standard curve and expressed in µU/mL. The experiments were performed at least in triplicates, and the graphs represent mean ±SD values.

Saos-2 cells = test: BrdU proliferation assay, 96 h; format: cell-based, human; details: for decrease in proliferation: 96 h
Description: (§6) In the study on the implication of NEP in the anti-proliferative activity of compound 4, cell proliferation was determined with the BrdU assay. Cell cultures were prepared as described above. Depending on the requirements, the HOS and Saos-2 cells were treated with non-cytotoxic concentrations of the NEP inhibitor—thiorphan (1, 5, 20, 100, 200, 500 µM) or pre-treated with thiorphan (100 µM) for 1 h. In this scheme, compound 4 (HOS—25 µM; Saos-2—60 µM) was added alone or in combination with the NEP inhibitor into the cell cultures. Finally, cell proliferation was evaluated with the BrdU Cell Proliferation Assay according to the manufacturer’s instructions (Millipore, Darmstadt, Germany) after a 96-h incubation.
as §4

HOS cells = test: BrdU proliferation assay, 96 h; format: cell-based, human; details: for decrease in proliferation: 96 h
Description: as §6, §4

[6] = Homo sapiens, SAOS-2, proliferation
[7] = normal osteoblasts hFOB 1.19 cells, read-out: CC50 (µM ± SD) hFOB 1.19

Compound | IC50 [1, 6] | IC50 (osteosarcoma HOS cells; Homo sapiens, HOS) | CC50 at 24 h [5, 7] | further results
[NH2][Pt]([NH2])([Cl])[Cl] [CDDP, cisplatin, reference compound] |  |  |  | IC50 ([1]; proliferation): 12.8 ± 3.7 µM; IC50 (osteosarcoma HOS cells): 3.5 ± 0.92 µM; increase in active caspase 9 vs untreated cells [2]: approx. 10%; increase in active caspase 3 vs untreated cells [3]: approx. 9%; increase in active caspase 3 vs untreated cells [4]: approx. 13%
[BH3-][P+](Cc1ccccc1)(OC(C)C)OC(C)C [Compound 1, benzylphosphonous acid-borane diisopropyl ester] | 91 ± 19.4 µM | 164 ± 79.5 µM | 161 ± 22.9 µM | 
[BH3-][P+](OC(C)C)(OC(C)C)C(C)(C)O [Compound 2, 1-hydroxy-1-methylethylphosphonous acid-borane diisopropyl ester] | 83.4 ± 18.4 µM | 344 ± 142 µM | 182 ± 28.1 µM | 
[BH3-][P+](OC(C)C)(N(CC)CC)C(C)(C)O (stereo not drawn) [Compound 3, 1-hydroxy-1-methylethylphosphonous acid-borane isopropyl ester N,N-diethylamide] | 79.6 ± 13.6 µM | 226 ± 3.56 µM | 224 ± 95.3 µM | 
[BH3-][P+](OC(C)C)(OC(C)C)C(Nc1ccc(O)cc1)c1ccccc1 (stereo not drawn) [Compound 5] | 96 ± 3.3 µM | 79.5 ± 22.9 µM | 43.9 ± 3.5 µM | CC50 at 24 h ([5]; normal colon fibroblasts CCD-18Co cells, read-out: CC50 (µM ± SD) CCD-18Co): 62.5 ± 36.2 µM
[BH3-][P+](OC(C)C)(OC(C)C)C(Nc1ccc(Br)cc1)c1ccc(OC)cc1 (stereo not drawn) [Compound 7, [1-(N-p-bromophenylamino)]-1-(p-anisyl)methylphosphonous acid-borane diisopropyl ester] | 109 ± 15.8 µM | 51.2 ± 18.6 µM | 214 ± 39.5 µM | 
O=C(O)CNC(=O)C(CS)Cc1ccccc1 (stereo not drawn) [thiorphan, N-[2-(mercaptomethyl)-1-oxo-3-phenylpropyl]glycine] |  |  |  | decrease in NEP activity (NEP (neprilysin); 0.0005 µM): approx. 30%; decrease in NEP activity (NEP (neprilysin); 0.005 µM): approx. 50%; decrease in NEP activity (NEP (neprilysin); 0.01 µM): ~60%; effect on proliferation (Saos-2 cells; Saos-2, 100 µM): did not affect cell proliferation; decrease in proliferation (Saos-2 cells; Saos-2, 200 µM): 35%; decrease in proliferation (Saos-2 cells; Saos-2, 500 µM): 60%; effect on proliferation (HOS cells; 100 µM): did not affect cell proliferation; decrease in proliferation (HOS cells; 200 µM): approx. 30%; decrease in proliferation (HOS cells; 500 µM): ~40%
